The results in this text go back to paper PMC10004634 (PLOS ONE, 2023).

Structures are written as SMILES. Where two headings read alike, the source gives them in different places.

The target in test [1] is T1, p38-delta (Homo sapiens, UniProt O15264).
T1 construct: gene MAPK13
T1 sequence (O15264 1-365): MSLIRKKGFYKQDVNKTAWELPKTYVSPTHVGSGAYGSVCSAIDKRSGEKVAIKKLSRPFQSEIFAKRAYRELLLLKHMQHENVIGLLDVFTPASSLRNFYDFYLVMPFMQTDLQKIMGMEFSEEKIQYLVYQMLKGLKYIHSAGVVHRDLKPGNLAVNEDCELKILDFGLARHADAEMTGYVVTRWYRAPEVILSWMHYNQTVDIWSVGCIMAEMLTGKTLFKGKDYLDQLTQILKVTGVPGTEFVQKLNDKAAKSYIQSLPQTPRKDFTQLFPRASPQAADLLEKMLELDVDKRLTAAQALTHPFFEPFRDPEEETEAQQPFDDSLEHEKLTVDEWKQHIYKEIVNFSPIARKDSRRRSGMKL
As to the kind of experiment: biochemical. Also noted: KINOMEscan scanMAX competition binding, DNA-tagged kinases, qPCR read-out, percent control at 300 nM.

Test [2] addresses ACVR2A (Homo sapiens, UniProt P27037). As to the kind of experiment: biochemical. Also noted: KINOMEscan scanMAX competition binding, DNA-tagged kinases, qPCR read-out, percent control at 300 nM.
For test [3], the target named is FGR (Homo sapiens, UniProt P09769). As to the kind of experiment: biochemical. The arrangement: KINOMEscan scanMAX competition binding, DNA-tagged kinases, qPCR read-out, percent control at 300 nM.
Chain of FGR (P09769 whole entry): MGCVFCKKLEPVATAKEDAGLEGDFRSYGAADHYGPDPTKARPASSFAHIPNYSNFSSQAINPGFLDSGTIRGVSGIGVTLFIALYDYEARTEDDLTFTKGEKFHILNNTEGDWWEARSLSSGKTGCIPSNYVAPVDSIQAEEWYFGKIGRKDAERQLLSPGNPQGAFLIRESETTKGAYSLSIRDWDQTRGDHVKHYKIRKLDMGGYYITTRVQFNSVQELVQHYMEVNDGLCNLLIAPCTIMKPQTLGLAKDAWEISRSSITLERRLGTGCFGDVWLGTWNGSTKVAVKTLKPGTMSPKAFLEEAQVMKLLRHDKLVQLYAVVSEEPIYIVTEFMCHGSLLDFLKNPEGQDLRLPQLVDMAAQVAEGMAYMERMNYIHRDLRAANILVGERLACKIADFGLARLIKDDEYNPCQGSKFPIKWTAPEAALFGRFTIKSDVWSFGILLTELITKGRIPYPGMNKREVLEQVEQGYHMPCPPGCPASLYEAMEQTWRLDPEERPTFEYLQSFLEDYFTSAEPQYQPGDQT
Test [4] has as its target EGFR(L747-E749del, A750P) (Homo sapiens, UniProt P00533, A750P/DEL747-749). As to the kind of experiment: biochemical. The arrangement: KINOMEscan scanMAX competition binding, DNA-tagged kinases, qPCR read-out, percent control at 300 nM.
The target in test [5] is T2, FLT3(K663Q) (Homo sapiens, UniProt P36888, K663Q).
T2 sequence (P36888 1-993 K663Q): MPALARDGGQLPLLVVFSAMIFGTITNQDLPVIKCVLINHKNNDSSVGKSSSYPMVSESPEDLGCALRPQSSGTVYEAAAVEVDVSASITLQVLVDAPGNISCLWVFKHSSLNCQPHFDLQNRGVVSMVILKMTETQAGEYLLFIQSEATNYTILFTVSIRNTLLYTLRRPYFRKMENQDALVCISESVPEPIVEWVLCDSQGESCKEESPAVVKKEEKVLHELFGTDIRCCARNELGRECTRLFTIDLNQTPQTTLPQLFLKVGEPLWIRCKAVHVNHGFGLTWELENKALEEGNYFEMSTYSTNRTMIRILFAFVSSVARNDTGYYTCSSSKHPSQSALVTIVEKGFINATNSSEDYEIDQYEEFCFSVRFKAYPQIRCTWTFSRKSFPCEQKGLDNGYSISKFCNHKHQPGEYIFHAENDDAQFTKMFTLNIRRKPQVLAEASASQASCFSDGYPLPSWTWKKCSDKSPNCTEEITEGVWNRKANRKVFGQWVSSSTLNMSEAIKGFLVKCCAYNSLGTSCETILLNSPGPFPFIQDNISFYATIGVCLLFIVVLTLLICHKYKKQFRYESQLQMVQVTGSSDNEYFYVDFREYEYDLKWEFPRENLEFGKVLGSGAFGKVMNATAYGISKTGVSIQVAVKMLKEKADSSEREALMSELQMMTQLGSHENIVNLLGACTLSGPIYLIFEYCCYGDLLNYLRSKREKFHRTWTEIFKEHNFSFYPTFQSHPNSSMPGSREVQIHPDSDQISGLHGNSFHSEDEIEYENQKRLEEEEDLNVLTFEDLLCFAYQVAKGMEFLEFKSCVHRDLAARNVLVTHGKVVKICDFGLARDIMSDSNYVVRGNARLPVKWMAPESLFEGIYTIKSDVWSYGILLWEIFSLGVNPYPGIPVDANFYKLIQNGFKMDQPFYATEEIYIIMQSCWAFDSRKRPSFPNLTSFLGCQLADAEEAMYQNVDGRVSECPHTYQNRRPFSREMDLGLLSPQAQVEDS
As to the kind of experiment: biochemical. The arrangement: KINOMEscan scanMAX competition binding, DNA-tagged kinases, qPCR read-out, percent control at 300 nM.

In test [6] the target is T3, TXK (Homo sapiens, UniProt P42681).
T3 sequence (P42681 1-527): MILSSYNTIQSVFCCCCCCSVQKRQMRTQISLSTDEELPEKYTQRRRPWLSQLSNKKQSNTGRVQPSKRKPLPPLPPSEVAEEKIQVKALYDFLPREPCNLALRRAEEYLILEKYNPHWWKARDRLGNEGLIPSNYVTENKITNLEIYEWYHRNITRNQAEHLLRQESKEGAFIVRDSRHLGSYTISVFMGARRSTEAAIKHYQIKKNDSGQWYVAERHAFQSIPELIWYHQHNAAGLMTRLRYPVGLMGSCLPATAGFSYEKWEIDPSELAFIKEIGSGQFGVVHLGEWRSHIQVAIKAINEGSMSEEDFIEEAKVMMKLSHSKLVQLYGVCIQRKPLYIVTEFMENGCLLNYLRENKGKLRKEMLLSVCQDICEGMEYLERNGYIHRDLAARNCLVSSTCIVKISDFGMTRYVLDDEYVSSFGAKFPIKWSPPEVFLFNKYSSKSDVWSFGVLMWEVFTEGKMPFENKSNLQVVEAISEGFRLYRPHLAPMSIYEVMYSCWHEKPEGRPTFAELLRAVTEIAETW
As to the kind of experiment: Z'-Lyte kinase inhibition assay. Format: biochemical. To be noted: 60 min preincubation. Also noted: purchased Thermo Fisher Scientific (Invitrogen Z'-Lyte service). The protocol:
In all the assays, each test compound was preincubated with peptide/kinase mixture or kinase/antibody mixture for 60 min at room temperature before adding the ATP solution or AlexaFluor labeled Tracer to initiate the 60-min incubation of the reactants.

Test [7] addresses RET(M918T) (Homo sapiens, UniProt P07949, M918T). Description: biochemical. The arrangement: KINOMEscan scanMAX competition binding, DNA-tagged kinases, qPCR read-out, percent control at 300 nM.
[8] abbreviates: read-out: Percent control / Acalabrutinib.
Setting [9] is: read-out: Percent control / Ibrutinib.
[10] abbreviates: read-out: Percent control / Tirabrutinib.
Where [11] appears, read: read-out: Percent control / Zanubrutinib.

What is called IC50 is the midpoint of a concentration-inhibition curve.

Chain of EGFR(L747-E749del, A750P) (P00533 with tags, fused parts or gaps DEL747-749/A750P): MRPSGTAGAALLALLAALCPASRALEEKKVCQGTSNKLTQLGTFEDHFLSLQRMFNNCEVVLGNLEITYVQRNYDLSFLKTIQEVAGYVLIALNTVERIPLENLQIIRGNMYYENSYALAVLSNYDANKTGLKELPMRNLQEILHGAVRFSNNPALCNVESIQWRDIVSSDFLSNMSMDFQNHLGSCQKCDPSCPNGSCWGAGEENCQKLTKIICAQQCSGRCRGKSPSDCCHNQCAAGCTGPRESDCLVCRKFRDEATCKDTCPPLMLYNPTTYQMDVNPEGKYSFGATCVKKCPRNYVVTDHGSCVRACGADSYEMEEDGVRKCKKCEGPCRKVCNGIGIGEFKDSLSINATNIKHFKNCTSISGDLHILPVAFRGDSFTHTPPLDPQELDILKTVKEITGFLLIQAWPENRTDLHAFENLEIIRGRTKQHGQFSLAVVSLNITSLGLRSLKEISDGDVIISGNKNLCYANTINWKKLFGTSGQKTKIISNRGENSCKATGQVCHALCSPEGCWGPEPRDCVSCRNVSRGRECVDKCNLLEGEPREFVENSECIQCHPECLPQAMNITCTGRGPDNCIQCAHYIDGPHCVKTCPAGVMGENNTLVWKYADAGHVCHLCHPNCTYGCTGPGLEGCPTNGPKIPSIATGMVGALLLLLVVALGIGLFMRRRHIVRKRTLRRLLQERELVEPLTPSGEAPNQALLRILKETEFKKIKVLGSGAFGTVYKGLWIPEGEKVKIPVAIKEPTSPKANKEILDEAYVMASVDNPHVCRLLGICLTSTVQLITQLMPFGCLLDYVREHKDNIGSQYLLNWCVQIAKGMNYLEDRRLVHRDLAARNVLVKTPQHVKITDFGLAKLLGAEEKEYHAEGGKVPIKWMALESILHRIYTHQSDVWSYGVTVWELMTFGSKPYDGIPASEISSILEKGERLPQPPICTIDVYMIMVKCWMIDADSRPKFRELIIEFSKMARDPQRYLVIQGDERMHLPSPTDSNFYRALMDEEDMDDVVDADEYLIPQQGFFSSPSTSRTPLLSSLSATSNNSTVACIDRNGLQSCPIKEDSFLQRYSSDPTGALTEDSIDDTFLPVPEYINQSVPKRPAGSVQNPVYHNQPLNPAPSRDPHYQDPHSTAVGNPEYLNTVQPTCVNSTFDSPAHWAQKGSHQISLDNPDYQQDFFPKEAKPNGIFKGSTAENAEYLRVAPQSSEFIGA
Chain of ACVR2A (P27037 whole entry): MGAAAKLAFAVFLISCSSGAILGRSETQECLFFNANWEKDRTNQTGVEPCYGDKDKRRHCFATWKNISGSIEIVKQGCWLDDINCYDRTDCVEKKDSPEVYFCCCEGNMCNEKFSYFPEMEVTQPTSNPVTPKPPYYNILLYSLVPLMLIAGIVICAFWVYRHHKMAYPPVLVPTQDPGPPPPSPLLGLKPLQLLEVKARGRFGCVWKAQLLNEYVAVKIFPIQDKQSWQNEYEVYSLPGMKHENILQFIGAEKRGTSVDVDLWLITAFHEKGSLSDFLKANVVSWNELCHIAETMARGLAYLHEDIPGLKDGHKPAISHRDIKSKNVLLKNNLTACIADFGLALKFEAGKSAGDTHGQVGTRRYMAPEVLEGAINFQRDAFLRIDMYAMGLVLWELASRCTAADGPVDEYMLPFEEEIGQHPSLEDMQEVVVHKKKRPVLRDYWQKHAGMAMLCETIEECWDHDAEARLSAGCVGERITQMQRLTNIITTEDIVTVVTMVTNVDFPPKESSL
Chain of RET(M918T) (P07949 whole entry M918T): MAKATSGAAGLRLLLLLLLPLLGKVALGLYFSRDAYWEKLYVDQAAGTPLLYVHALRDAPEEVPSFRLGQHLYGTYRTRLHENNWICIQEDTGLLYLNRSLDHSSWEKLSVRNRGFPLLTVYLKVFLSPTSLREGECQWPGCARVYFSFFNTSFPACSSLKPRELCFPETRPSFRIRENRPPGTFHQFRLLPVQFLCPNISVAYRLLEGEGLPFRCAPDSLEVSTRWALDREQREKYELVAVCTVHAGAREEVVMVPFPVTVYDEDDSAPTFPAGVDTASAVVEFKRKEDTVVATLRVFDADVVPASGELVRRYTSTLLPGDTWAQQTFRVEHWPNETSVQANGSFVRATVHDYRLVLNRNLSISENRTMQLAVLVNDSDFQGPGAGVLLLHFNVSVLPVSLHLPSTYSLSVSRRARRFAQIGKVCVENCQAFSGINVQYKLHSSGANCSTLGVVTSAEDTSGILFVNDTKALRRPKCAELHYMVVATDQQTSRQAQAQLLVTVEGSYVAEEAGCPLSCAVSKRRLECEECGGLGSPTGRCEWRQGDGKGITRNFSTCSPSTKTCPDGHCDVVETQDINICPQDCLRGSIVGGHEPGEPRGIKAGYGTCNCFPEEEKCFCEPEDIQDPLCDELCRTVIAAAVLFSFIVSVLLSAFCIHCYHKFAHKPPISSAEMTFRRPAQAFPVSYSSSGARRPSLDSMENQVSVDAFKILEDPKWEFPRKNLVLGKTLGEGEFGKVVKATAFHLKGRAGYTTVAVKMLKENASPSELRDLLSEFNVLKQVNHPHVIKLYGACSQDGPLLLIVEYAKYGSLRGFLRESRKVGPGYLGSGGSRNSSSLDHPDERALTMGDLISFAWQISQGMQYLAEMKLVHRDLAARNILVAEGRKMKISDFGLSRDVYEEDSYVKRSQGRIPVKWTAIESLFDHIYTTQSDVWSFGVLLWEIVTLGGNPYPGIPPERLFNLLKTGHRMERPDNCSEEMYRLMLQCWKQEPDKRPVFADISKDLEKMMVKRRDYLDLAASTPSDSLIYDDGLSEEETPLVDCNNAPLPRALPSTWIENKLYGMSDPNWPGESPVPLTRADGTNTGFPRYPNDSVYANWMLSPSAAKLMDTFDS

Take `CC#CC(=O)N1CCC[C@H]1c1nc(-c2ccc(C(=O)Nc3ccccn3)cc2)c2c(N)nccn12` [Acalabrutinib]: the remaining binding at 0.3 µM amounted to 95% in test [1] (setting [8]); 80% in test [2] (setting [8]); 94% in test [3] (setting [8]); 91% in test [4] (setting [8]); 87% in test [5] (setting [8]). This compound also returned an IC50 in test [6] of 0.273 µM.
As to `C=CC(=O)N1CCC[C@@H](n2nc(-c3ccc(Oc4ccccc4)cc3)c3c(N)ncnc32)C1` [Ibrutinib], the remaining binding at 0.3 µM in test [7] (setting [9]) was determined as 32%; in test [2] (setting [9]) it was 86%; in test [3] (setting [9]), 8.6%; in test [4] (setting [9]), 10%; in test [5] (setting [9]) it was 45%.
Take `CC#CC(=O)N1CC[C@@H](n2c(=O)n(-c3ccc(Oc4ccccc4)cc3)c3c(N)ncnc32)C1` [Tirabrutinib]: the remaining binding at 0.3 µM in test [7] (setting [10]) was determined as 91%; in test [1] (setting [10]), 94%; in test [4] (setting [10]), 69%. The compound further displayed an IC50 in test [6] of 0.0545 µM.
For the compound `C=CC(=O)N1CCC([C@@H]2CCNc3c(C(N)=O)c(-c4ccc(Oc5ccccc5)cc4)nn32)CC1` [Zanubrutinib], the remaining binding at 0.3 µM in test [7] (setting [11]) amounted to 92%; in test [1] (setting [11]), 100%; in test [2] (setting [11]), 100%; in test [3] (setting [11]) it was 66%; in test [5] (setting [11]) it was 61%. Also, the IC50 in test [6] was 0.00459 µM.
